Results reported in patent US20240409585A1, “MACROCYCLIC IMMUNOMODULATORS” (priority 2021, published 2024).
Like-named read-outs stand apart in the source and are kept apart here. Bridge positions count the residues as written; N and C are the ends. Square brackets hold non-standard residues; d marks the D form. Peptide text beside a SMILES is read from it. * marks the point of attachment. ξ: configuration not given here. Phe(4-COOH) = N[C@@H](Cc1ccc(C(=O)O)cc1)C(=O)O; Bip = N[C@@H](Cc1ccc(-c2ccccc2)cc1)C(=O)O; Phe(3-Cl) = N[C@@H](Cc1cccc(Cl)c1)C(=O)O; Phe(3-Me) = Cc1cccc(C[C@H](N)C(=O)O)c1; 4Pal = N[C@@H](Cc1ccncc1)C(=O)O; Cha = N[C@@H](CC1CCCCC1)C(=O)O; Ile(3ξ) = CCC(C)[C@H](N)C(=O)O; Tle = CC(C)(C)[C@H](N)C(=O)O; dDab = NCC[C@@H](N)C(=O)O; Carboxymethyl = O=C(O)C*; NMeA = CN[C@@H](C)C(=O)O; Orn = NCCC[C@H](N)C(=O)O; Dab = NCC[C@H](N)C(=O)O

Molecular target: T1, PE-labeled human PD-L1-Ig binding to Jurkat cell line over-expressing human PD-1 (Jurkat-PD-1) (Homo sapiens, UniProt Q15116)
T1 construct: expressed in transfected cells; host or cells: Jurkat
Test: Jurkat-PD-1 Cell Binding High-Content Screening Assay (CBA): Method 1

[1] = Jurkat-hPD-1 cells, PE-labeled PD-L1-Ig 20 nM final, read-out: Jurkat HPDL1 PD1 IC50 (uM) (Method 1)

T1 sequence (Q15116 25-288): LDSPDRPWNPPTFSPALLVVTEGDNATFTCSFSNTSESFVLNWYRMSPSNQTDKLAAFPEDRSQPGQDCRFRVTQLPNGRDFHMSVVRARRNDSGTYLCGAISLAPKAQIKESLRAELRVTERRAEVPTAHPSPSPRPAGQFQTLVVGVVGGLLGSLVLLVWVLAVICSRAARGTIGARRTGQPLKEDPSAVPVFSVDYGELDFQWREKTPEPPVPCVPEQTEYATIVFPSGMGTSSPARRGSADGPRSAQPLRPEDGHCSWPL

Structure (SMILES) | IC50 [1] | IC50 (Jurkat HPDL1 PD1 IC50 (uM) (Method 1))
CC(C)C[C@@H]1NC(=O)[C@H](Cc2c[nH]c3ccccc23)NC(=O)[C@H](CC(=O)O)NC(=O)[C@H](Cc2ccc(C(=O)O)cc2)NC(=O)[C@H](Cc2ccc(OCC(=O)O)cc2)NC(=O)CSC[C@@H](C(=O)N[C@@H](CC(N)=O)C(N)=O)NC(=O)[C@H](CO)NC(=O)[C@H](C(C)(C)C)NC(=O)[C@H](CC2CCCCC2)NC(=O)[C@H](CCN)NC(=O)[C@@H](CC(C)C)NC(=O)[C@H](C)N(C)C(=O)[C@H](C(C)C)NC(=O)[C@H](Cc2ccc(-c3ccccc3)cc2)NC1=O [Compound 1914] ({CH2CO}-Y(Carboxymethyl)[Phe(4-COOH)]DWL[Bip]V[NMeA][dL][Dab][Cha][Tle]SCN-NH2; thioether N-14) | 0.01 µM | –
Cc1cccc(C[C@@H]2NC(=O)[C@H](CC(=O)O)NC(=O)[C@H](Cc3ccc(OCC(=O)O)cc3)NC(=O)[C@H](Cc3ccc(OCC(=O)O)cc3)NC(=O)CSC[C@@H](C(=O)N[C@@H](CCN)C(N)=O)NC(=O)[C@@H](CCN)NC(=O)[C@H](C(C)C)NC(=O)[C@H](CC3CCCCC3)NC(=O)[C@H](CCN)NC(=O)[C@@H](CC(C)C)NC(=O)[C@H](C)N(C)C(=O)[C@H](Cc3ccc(O)cc3)NC(=O)[C@H](Cc3ccc(-c4ccccc4)cc3)NC(=O)[C@H](Cc3ccc(O)cc3)NC2=O)c1 [Compound 1872] ({CH2CO}-Y(Carboxymethyl)Y(Carboxymethyl)D[Phe(3-Me)]Y[Bip]Y[NMeA][dL][Dab][Cha]V[dDab]C[Dab]-NH2; thioether N-14) | 0.02 µM | –
CC(C)C[C@@H]1NC(=O)[C@H](CCCNC(=N)N)NC(=O)[C@@H](CC(C)C)NC(=O)[C@H](C)N(C)C(=O)[C@H](C(C)C)NC(=O)[C@H](Cc2ccc(-c3ccccc3)cc2)NC(=O)[C@H](C(C)C)NC(=O)[C@H](Cc2cccc(Cl)c2)NC(=O)[C@H](CC(=O)O)NC(=O)[C@H](Cc2ccc(O)cc2)NC(=O)[C@H](CC(N)=O)NC(=O)CSC[C@@H](C(=O)N[C@@H](C)C(N)=O)NC(=O)[C@H]([C@@H](C)O)NC(=O)[C@H](C(C)C)NC1=O [Compound 1274] ({CH2CO}-NYD[Phe(3-Cl)]V[Bip]V[NMeA][dL]RLVTCA-NH2; thioether N-14) | 0.03 µM | –
CC(C)C[C@@H]1NC(=O)[C@H](CCCN)NC(=O)[C@@H](CC(C)C)NC(=O)[C@H](C)N(C)C(=O)[C@H](CCCNC(=N)N)NC(=O)[C@H](Cc2ccc(-c3ccccc3)cc2)NC(=O)[C@H](C(C)C)NC(=O)[C@H](Cc2c[nH]c3ccccc23)NC(=O)[C@H](CC(=O)O)NC(=O)[C@H](Cc2cnc[nH]2)NC(=O)[C@H](CC(N)=O)NC(=O)CSC[C@@H](C(=O)N[C@@H](C)C(N)=O)NC(=O)[C@H]([C@@H](C)O)NC(=O)[C@H](C(C)C)NC1=O [Compound 1131] ({CH2CO}-NHDWV[Bip]R[NMeA][dL][Orn]LVTCA-NH2; thioether N-14) | 0.28 µM | –
Cc1cccc(C[C@@H]2NC(=O)[C@H](CC(=O)O)NC(=O)[C@H](Cc3ccc(OCC(=O)O)cc3)NC(=O)[C@H]([C@@H](C)O)NC(=O)CSC[C@@H](C(N)=O)NC(=O)[C@H](CC(N)=O)NC(=O)[C@H](C(C)C)NC(=O)[C@H](CC3CCCCC3)NC(=O)[C@H](CC(N)=O)NC(=O)[C@@H](CC(C)C)NC(=O)[C@H](C)N(C)C(=O)[C@H](Cc3ccc(OCC(=O)O)cc3)NC(=O)[C@H](Cc3ccc(-c4ccccc4)cc3)NC(=O)[C@H](Cc3ccc(OCC(=O)O)cc3)NC2=O)c1 [Compound 1675] ({CH2CO}-TY(Carboxymethyl)D[Phe(3-Me)]Y(Carboxymethyl)[Bip]Y(Carboxymethyl)[NMeA][dL]N[Cha]VNC-NH2; thioether N-14) | 0.12 µM | –
CCC(C)[C@@H]1NC(=O)[C@H](Cc2ccc(-c3ccccc3)cc2)NC(=O)[C@H](C(C)C)NC(=O)[C@H](Cc2cccc(C)c2)NC(=O)[C@H](CC(=O)O)NC(=O)[C@H](Cc2cccc(C)c2)NC(=O)[C@H](Cc2ccncc2)NC(=O)CSC[C@@H](C(=O)N[C@@H](CO)C(=O)O)NC(=O)[C@H](CO)NC(=O)[C@H](C(C)C)NC(=O)[C@H](CC2CCCCC2)NC(=O)[C@H](CCN)NC(=O)[C@@H](CC(C)C)NC(=O)[C@H](C)N(C)C1=O (stereo partly drawn) [Compound 2233] ({CH2CO}-[4Pal][Phe(3-Me)]D[Phe(3-Me)]V[Bip][Ile(3ξ)][NMeA][dL][Dab][Cha]VSCS-OH; thioether N-14) | – | 0.02 µM
